Data published in BindingDB's records for doi:10.1021/acs.jmedchem.6b01578 (University of Bologna, 2017).
“And” between values parts separate entries of the source, which are not always exact repeats. Equal values may be shown once.

Assay: Agonist activity at recombinant human CB1 receptor expressed in CHO-K1 cells assessed as increase in cAMP accumulation after 20 mins by HTRF assay

Structure (SMILES) | EC50
COc1cc(OC(=O)NCCCCN2CCN(c3cccc(Cl)c3Cl)CC2)ccc1-c1ccccc1 | 220 nM and 219 nM
CCCCCCC(C)(C)c1ccc2c(c1)OC(C)(C)[C@@H]1CCC(CO)=C[C@@H]21 | 1.2 nM
CCCC(C)(C)c1ccc2c(c1)OC(C)(C)[C@@H]1CCC(C)=C[C@@H]21 | 667 nM
COc1ccccc1N1CCN(CCCCNC(=O)Oc2ccc3c(c2)[nH]c2ccccc23)CC1 | 2300 nM and 2340 nM
CCCCCc1cc(O)c2c(c1)OC(C)(C)[C@@H]1CCC(C)=C[C@@H]21 [(10R,10aR)-6,6,9-Trimethyl-3-pentyl-6a,7,8,10a-tetrahydro-6H-benzo[c]chromen-1-ol] | 10 nM
